Laboratory results: patent US20170088520A1, “DEUBIQUITINASE INHIBITORS” (PharmAkea, Inc., priority 2014, published 2017)

What was measured:
Assay type in all cases: cell-based
[1] = biological target: T1, DUB activity in cells (NCI-H929, Z138, MM.1S, A375) (Homo sapiens, UniProt Q93008); experiment: HA-Ubiquitin-Vinylsulfone (HA-Ub-VS) cell labeling assay; settings: compound tested at 5 μM; HA-Ub-VS labeling of USP9x in cells
T1 construct: endogenous in cells; host or cells: NCI-H929, Z138, MM.1S, A375
In short: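 NCI-H929, Z138, MM.1S or A375 cells (1–2×10^6) treated 2–6 h at 37 °C with compound in 0.5% DMSO, here 5 μM. Lysates labeled with HA-Ub-VS for 15–60 min at 37 °C. Labeled DUBs resolved by SDS-PAGE and quantified by anti-HA and anti-β-actin immunoblot with infrared detection.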

[2] = tested on: Mcl-1 expression in cells (NCI-H929, Z138, MM.1S, A-375); experiment: Analysis of Mcl-1 expression by Western blotting; settings: compound tested at 5 μM; Western blot
In short: (§1)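 NCI-H929, Z138, MM.1S and A-375 cells were treated with compounds at 5 μM, and lysates were Western blotted with anti-Mcl-1 and anti-PARP antibodies, quantified by infrared fluorescence. Activity is a significant drop in Mcl-1 and the appearance of cleaved PARP, each relative to vehicle-treated cells.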

[3] = tested on: PARP cleavage in cells (NCI-H929, Z138, MM.1S, A-375); experiment: Analysis of PARP cleavage by Western blotting; settings: compound tested at 5 μM; Western blot
In short: as §1

T1 sequence (Q93008 whole entry): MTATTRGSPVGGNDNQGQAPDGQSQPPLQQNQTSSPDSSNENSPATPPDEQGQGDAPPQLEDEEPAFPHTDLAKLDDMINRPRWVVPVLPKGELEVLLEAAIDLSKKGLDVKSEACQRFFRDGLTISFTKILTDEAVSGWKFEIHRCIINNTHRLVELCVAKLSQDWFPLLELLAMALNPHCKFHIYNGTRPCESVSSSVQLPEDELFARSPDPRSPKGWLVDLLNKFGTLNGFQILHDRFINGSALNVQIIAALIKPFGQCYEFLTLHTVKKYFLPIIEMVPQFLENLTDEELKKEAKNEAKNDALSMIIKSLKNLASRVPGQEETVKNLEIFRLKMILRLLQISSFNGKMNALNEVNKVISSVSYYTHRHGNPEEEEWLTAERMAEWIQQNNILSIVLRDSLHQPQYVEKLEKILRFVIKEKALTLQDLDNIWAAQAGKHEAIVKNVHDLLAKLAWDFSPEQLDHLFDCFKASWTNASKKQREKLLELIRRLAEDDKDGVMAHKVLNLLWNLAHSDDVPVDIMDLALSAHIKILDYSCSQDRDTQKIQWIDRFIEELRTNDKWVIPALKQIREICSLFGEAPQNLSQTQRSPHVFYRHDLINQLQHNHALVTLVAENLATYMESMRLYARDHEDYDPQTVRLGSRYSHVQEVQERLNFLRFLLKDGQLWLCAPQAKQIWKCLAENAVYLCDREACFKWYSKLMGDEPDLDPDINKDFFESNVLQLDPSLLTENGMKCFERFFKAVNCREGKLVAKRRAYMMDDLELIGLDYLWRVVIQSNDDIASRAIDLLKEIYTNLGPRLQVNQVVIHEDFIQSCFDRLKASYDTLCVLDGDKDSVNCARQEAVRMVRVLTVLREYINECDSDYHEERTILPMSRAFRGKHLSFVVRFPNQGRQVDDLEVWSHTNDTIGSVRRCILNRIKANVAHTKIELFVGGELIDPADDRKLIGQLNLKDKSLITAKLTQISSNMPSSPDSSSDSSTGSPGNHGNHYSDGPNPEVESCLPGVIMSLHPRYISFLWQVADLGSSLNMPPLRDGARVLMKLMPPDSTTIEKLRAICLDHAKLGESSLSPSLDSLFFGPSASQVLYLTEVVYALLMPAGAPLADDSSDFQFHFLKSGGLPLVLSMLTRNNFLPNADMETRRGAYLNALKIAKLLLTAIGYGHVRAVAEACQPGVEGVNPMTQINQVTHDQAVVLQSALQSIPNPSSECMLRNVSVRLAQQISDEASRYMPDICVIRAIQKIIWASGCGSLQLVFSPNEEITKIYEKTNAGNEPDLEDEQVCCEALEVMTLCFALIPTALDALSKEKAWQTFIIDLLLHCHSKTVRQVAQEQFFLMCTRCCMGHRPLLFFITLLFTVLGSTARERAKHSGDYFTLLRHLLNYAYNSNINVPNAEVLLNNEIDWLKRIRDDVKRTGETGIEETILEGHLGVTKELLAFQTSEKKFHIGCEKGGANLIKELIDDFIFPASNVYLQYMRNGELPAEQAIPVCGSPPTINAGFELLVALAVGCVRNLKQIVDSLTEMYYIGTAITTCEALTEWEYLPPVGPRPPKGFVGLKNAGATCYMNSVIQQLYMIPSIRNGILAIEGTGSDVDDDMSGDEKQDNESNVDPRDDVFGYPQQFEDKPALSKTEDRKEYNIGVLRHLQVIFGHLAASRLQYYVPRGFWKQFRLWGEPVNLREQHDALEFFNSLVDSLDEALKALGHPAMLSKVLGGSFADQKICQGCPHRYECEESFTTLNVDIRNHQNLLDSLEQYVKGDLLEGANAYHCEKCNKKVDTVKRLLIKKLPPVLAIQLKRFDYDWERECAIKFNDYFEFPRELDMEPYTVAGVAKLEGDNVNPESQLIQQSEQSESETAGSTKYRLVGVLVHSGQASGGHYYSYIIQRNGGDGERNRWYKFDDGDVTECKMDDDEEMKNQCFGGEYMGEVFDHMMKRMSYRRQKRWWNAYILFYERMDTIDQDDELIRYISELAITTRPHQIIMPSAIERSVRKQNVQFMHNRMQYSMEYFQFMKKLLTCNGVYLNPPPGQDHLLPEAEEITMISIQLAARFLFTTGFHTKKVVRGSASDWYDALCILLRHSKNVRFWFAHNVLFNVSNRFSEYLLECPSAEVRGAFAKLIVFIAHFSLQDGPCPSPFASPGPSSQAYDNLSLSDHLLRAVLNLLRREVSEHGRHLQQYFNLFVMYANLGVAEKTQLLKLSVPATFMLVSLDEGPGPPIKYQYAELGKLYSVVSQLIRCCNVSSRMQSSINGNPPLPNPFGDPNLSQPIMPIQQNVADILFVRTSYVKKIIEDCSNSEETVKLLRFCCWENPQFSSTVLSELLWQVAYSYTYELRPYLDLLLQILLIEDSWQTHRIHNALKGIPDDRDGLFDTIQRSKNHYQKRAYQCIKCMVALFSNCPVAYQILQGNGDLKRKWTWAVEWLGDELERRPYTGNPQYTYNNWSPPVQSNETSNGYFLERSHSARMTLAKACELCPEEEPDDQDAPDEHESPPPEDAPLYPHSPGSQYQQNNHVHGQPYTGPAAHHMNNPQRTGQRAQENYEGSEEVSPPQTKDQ

inhibition at 5 µM [1] [%]	SMILES	inhibition at 5 µM [2] [%]	PARP cleavage % Inhibition [3]
50 to 75	N#C/C(=C\c1ccc(Br)cn1)C(=O)NC1(c2ccccc2)CCCC1 [Compound 29, (E)-3-(5-bromopyridin-2-yl)-2-cyano-N-(1-phenylcyclopentyl)acrylamide]	< 25	A (A is ≧75% inhibition)
50 to 75	N#C/C(=C\c1ncc(Br)cc1Br)C(=O)NC1(c2ccncc2)CCCC1 [Compound 3-3, (E)-2-cyano-3-(3,5-dibromopyridin-2-yl)-N-(1-(pyridin-4-yl)cyclopentyl)acrylamide]	≥ 75	A (A is ≧75% inhibition)
≥ 75	N#C/C(=C\c1ncc(Br)cc1Br)C(=O)NC1(c2ccc(C(F)(F)F)cc2)CCCC1 [Compound 19, (E)-2-Cyano-3-(3,5-dibromopyridin-2-yl)-N-(1-(4-(trifluoromethyl)phenyl)cyclopentyl) acrylamide]	≥ 75	A (A is ≧75% inhibition)
50 to 75	N#C/C(=C\c1cccc(-c2ccc(C(F)(F)F)nc2)n1)C(=O)NC1(c2ccccc2)CCCC1 [Compound 64, (E)-2-cyano-N-(1-phenylcyclopentyl)-3-(6′-(trifluoromethyl)-[2,3′-bipyridin]-6-yl)acrylamide]	≥ 75	A (A is ≧75% inhibition)
25 to 50	N#C/C(=C\c1ccc(Cl)c(Cl)c1)C(=O)NC1(c2ccccc2)CCCC1 [Compound 11, (E)-3-(3,4-Dichlorophenyl)-2-cyano-N-(1-phenylcyclopentyl)acrylamide]	25 to 50	B (B is 50% to 75% inhibition)
25 to 50	N#C/C(=C\c1cccc(Br)n1)C(=O)NC1(c2ccncc2)CCCC1 [Compound 3-2, (E)-3-(6-bromopyridin-2-yl)-2-cyano-N-(1-(pyridin-4-yl)cyclopentyl) acrylamide]	50 to 75	A (A is ≧75% inhibition)
< 25	N#C/C(=C\c1cccc(Br)n1)C(=O)NC1(c2ccc(-c3cccc(C(=O)NS(=O)(=O)c4ccccc4)c3)cc2)CCCC1 [Compound 94, (E)-4′-(1-(3-(6-bromopyridin-2-yl)-2-cyanoacrylamido)cyclopentyl)-N-(phenylsulfonyl)-[1,1′-biphenyl]-3-carboxamide]	25 to 50	A (A is ≧75% inhibition)
50 to 75	N#C/C(=C\c1ncc(Br)cc1Br)C(=O)NC1(c2ccc(-c3cccnc3)cc2)CCCC1 [Compound 39, (E)-2-cyano-3-(3,5-dibromopyridin-2-yl)-N-(1-(4-(pyridin-3-yl)phenyl)cyclopentyl)acrylamide]	≥ 75	A (A is ≧75% inhibition)
< 25	CC(C)(C)OC(=O)c1cccc(C2(NC(=O)/C(C#N)=C/c3ncc(Br)cc3Br)CCCC2)c1 [Compound 52, (E)-tert-butyl 3-(1-(2-cyano-3-(3,5-dibromopyridin-2-yl)acrylamido)cyclopentyl)benzoate]	< 25	D (D is <25% inhibition)
< 25	N#C/C(=C\c1ncccc1F)C(=O)NC1(c2ccccc2)CCCC1 [Compound 8, (E)-3-(3-Fluoropyridin-2-yl)-2-cyano-N-(1-phenylcyclopentyl)acrylamide]	< 25	D (D is <25% inhibition)
≥ 75	N#C/C(=C\c1ncc(Br)cc1Br)C(=O)NC1(c2ccccc2)CCCCC1 [Compound 23, (E)-2-Cyano-3-(3,5-dibromopyridin-2-yl)-N-(1-phenylcyclohexyl)acrylamide]	≥ 75	A (A is ≧75% inhibition)
≥ 75	CC(C)(C)OC(=O)COc1ccc(C2(NC(=O)/C(C#N)=C/c3cccc(Br)n3)CCCC2)cc1 [Compound 88, (E)-tert-butyl 2-(4-(1-(3-(6-bromopyridin-2-yl)-2-cyanoacrylamido)cyclopentyl)phenoxy)acetate]	≥ 75	A (A is ≧75% inhibition)
25 to 50	N#C/C(=C\c1cccc(Br)n1)C(=O)NC1(c2ccc(COC(=O)CCCCCN3C(=O)C=CC3=O)cc2)CCCC1 [Compound 85, (E)-4-(1-(3-(6-bromopyridin-2-yl)-2-cyanoacrylamido)cyclopentyl)benzyl 6-(2,5-dioxo-2,5-dihydro-1H-pyrrol-1-yl)hexanoate]	< 25	C (C is 25% to 50% inhibition)
≥ 75	N#C/C(=C\c1cccc(Br)n1)C(=O)NC1(c2ccc(-c3cccnc3)cc2)CCCC1 [Compound 73, (E)-3-(6-bromopyridin-2-yl)-2-cyano-N-(1-(4-(pyridin-3-yl)phenyl)cyclopentyl)acrylamide]	≥ 75	A (A is ≧75% inhibition)
< 25	N#C/C(=C\c1cccc(C#CCn2cccn2)n1)C(=O)NC1(c2ccncc2)CCCC1 [Compound 3-4, (E)-3-(6-(3-(1H-pyrazol-1-yl)prop-1-yn-1-yl)pyridin-2-yl)-2-cyano-N-(1-(pyridin-4-yl)cyclopentyl)acrylamide]	< 25	B (B is 50% to 75% inhibition)
≥ 75	N#C/C(=C\c1ncc(Br)cc1Br)C(=O)NC1(c2ccc(-c3ccc(C(F)(F)F)nc3)cc2)CCCC1 [Compound 68, (E)-2-cyano-3-(3,5-dibromopyridin-2-yl)-N-(1-(4-(6-(trifluoromethyl)pyridin-3-yl)phenyl)cyclopentyl)acrylamide]	≥ 75	A (A is ≧75% inhibition)
50 to 75	COC(=O)c1ccc(-c2ccc(C3(NC(=O)/C(C#N)=C/c4ncc(Br)cc4Br)CCCC3)cc2)cn1 [Compound 37, (E)-methyl 5-(4-(1-(2-cyano-3-(3,5-dibromopyridin-2-yl)acrylamido)cyclopentyl)phenyl)picolinate]	50 to 75	B (B is 50% to 75% inhibition)
< 25	N#C/C(=C\c1cccc(-c2cnc3[nH]ccc3c2)n1)C(=O)NC1(c2ccccc2)CCCC1 [Compound 61, (E)-3-(6-(1H-pyrrolo[2,3-b]pyridin-5-yl)pyridin-2-yl)-2-cyano-N-(1-phenylcyclopentyl)acrylamide]	< 25	B (B is 50% to 75% inhibition)
≥ 75	N#C/C(=C\c1nc(Br)ccc1F)C(=O)NC1(c2ccccc2)CCCC1 [Compound 6, (E)-3-(3-Fluoro-6-bromopyridin-2-yl)-2-cyano-N-(1-phenylcyclopentyl)acrylamide]	≥ 75	A (A is ≧75% inhibition)
50 to 75	CN(C(=O)/C(C#N)=C/c1cccc(Br)n1)C1(c2ccccc2)CCCC1 [Compound 2-82, (E)-3-(6-bromopyridin-2-yl)-2-cyano-N-methyl-N-(1-phenylcyclopentyl)acrylamide]	≥ 75	A (A is ≧75% inhibition)
